The subject of one experiment is NPY5R. Kind of experiment: Affymetrix canine GeneChip gene expression analysis in canine cell lines, NPY5R. The experiment is classed as cell-based. The protocol: Gene expression was analyzed using Affymetrix Canine 1 and Canine 2 GeneChip Arrays available commercially from Affymetrix, Inc., Santa Clara, Calif. 95051. Total RNA is reverse transcribed into cDNA. The cDNA is used to generate cRNA which is fragmented and used as probes for GeneChip hybridization. The gene chip is washed and the hybridization signal is measured with an Affymetrix laser scanner. The hybridization data is then validated and normalized for further analysis. Materials: Affymetrix provided most of the reagents and kit. Other reagents listed in the Affymetrix Manual but not supplied in the kit were obtained separately. Refer to GeneChip Expression Analysis Technical Manual (701021 Rev. 4) for the details. Equipment: Eppendorf Microcentrifuge, 1.5 mL DNase and RNase free/sterile microcentrifuge tubes, 50 mL DNase and RNase free/sterile disposable polypropylene tubes, P1000, […] and P2 Rainin Pipetman pipettes, Filter pipette tips for P1000, […] and P2 pipettes, DNase and RNase free/sterile, and Peltier Thermal Cycler PTC-200. Procedure: All procedures followed exactly as described in GeneChip Expression Analysis Technical Manual (Affymetrix Copyright 1999-2003). 5 micrograms of total RNA were used for the first strand cDNA synthesis. Used either Peltier Thermal Cycler PTC-200 or heat block for temperature control on reactions and probe denaturing. The quality control was performed using RNA NanoDrop chips with BioAnalyer 2100. Used 100 Format (Midi Array) for the canine genechip. […] The solvent at the higher of the two concentrations was used as a control. […] Gene expression was measured for the treatment cell lines and controls. The gene expression data was determined to be either “up” or “down”-regulated for any given treatment. The decision on whether a gene is “up” or “down” is based on the fold change, which is calculated as treatment intensity/control intensity for each individual probe.

In the next experiment the test system is NPY1R. The experiment in a line: Affymetrix canine GeneChip gene expression analysis in canine cell lines, NPY1R. As to conditions: in two cell lines tested, amount tested 0.005 mg/mL, 0.025 mg/mL. The experiment is classed as cell-based. The protocol: Gene expression was analyzed using Affymetrix Canine 1 and Canine 2 GeneChip Arrays available commercially from Affymetrix, Inc., Santa Clara, Calif. 95051. Total RNA is reverse transcribed into cDNA. The cDNA is used to generate cRNA which is fragmented and used as probes for GeneChip hybridization. The gene chip is washed and the hybridization signal is measured with an Affymetrix laser scanner. The hybridization data is then validated and normalized for further analysis.
Materials: Affymetrix provided most of the reagents and kit. Other reagents listed in the Affymetrix Manual but not supplied in the kit were obtained separately. Refer to GeneChip Expression Analysis Technical Manual (701021 Rev. 4) for the details. […]
Affymetrix canine gene chips Canine-1 and Canine-2 are used to determine the effect of various test substances or ingredients on gene expression in four canine cell lines and appropriate controls. […] Gene expression was measured for the treatment cell lines and controls. The gene expression data was determined to be either “up” or “down”-regulated for any given treatment. The decision on whether a gene is “up” or “down” is based on the fold change, which is calculated as treatment intensity/control intensity for each individual probe.

Each structure is given as a SMILES string.

With `O=c1cc(-c2ccc(O)c(O)c2)oc2cc(O)cc(O)c12` [Luteolin, luteolin], the Fold change with NPY5R (in two cell lines tested, amount tested 1 uM, 10 uM) is 1.56 (in two cell lines tested). As for `CC/C=C\C/C=C\C/C=C\C/C=C\C/C=C\CCCC(=O)O` [EPA], the Fold change in the experiment on NPY5R (in two cell lines tested, amount tested 0.005 mg/mL, 0.025 mg/mL) is −1.82 (in two cell lines; in the experiment on NPY1R, −1.43 (in two cell lines. Turning to `O=C(O[C@@H]1Cc2c(O)cc(O)cc2O[C@@H]1c1cc(O)c(O)c(O)c1)c1cc(O)c(O)c(O)c1` [Epigallocatechin Gallate, epigallocatechin gallate], the Fold change in the experiment with NPY5R (in all cell lines tested, amount tested 20 ng/mL, 80 ng/mL, fold change = treatment intensity/control intensity) is listed as −1.33 (in all cell lines.

Source of the values: patent US20130273196A1, “Pet Food Compositions for Inducing a Satiety Response” (HILL'S PET NUTRITION, INC, priority 2010, published 2013).
